This is an account of results in US10131657B2, “Bromodomain inhibitors” (AbbVie Inc., priority 2013, dated 2018).

One test deals with T1, BRD4 (BDI_K57-E168) (Homo sapiens, UniProt O60885).
T1 construct: BD1: amino acids K57-E168; made in house
Put plainly: TR-FRET bromodomain binding assay, BRD4 first bromodomain. To be noted: His-tagged BRD4 BD1, 100 nM Alexa647 probe; Ki calculated from IC50, probe Kd and probe concentration. How it is done:
(§1) A time-resolved fluorescence resonance energy transfer (TR-FRET) assay was used to determine the affinities of compounds of the Examples listed in Table 1 for each bromodomain of BRD4. His-tagged first (BD1: amino acids K57-E168) and second (BD2: amino acids E352-E168) bromodomains of BRD4 were expressed and purified. An Alexa647-labeled BET-inhibitor was used as the fluorescent probe in the assay.
(§2) Compound dilution series were prepared in DMSO via a 3-fold serial dilution from 2.5 mM to 42 nM. Compounds were then diluted 6:100 in assay buffer (20 mM Sodium Phosphate, pH 6.0, 50 mM NaCl, 1 mM Ethylenediaminetetraacetic acid disodium salt dihydrate, 0.01% Triton X-100, 1 mM DL-Dithiothreitol) to yield 3× working solutions. Six microliters (μL) of the working solution was then transferred to white, low-volume assay plates (Costar #3673). A 1.5× assay mixture containing His-tagged bromodomain, Europium-conjugated anti-His antibody (Invitrogen PV5596) and the Alexa-647-conjugated probe molecule was also prepared. Twelve μL of this solution were added to the assay plate to reach a final volume of 18 μL. The final concentration of 1× assay buffer contains 2% DMSO, 50 μM-0.85 nM compound, 8 nM His-tagged bromodomain, 1 nM Europium-conjugated anti-His-tag antibody and 100 nM or 30 nM probe (for BDI or BDII, respectively). After a one-hour incubation at room temperature, TR-FRET ratios were determined using an Envision multilabel plate reader (Ex 340, Em […]).
(§3) TR-FRET data were normalized to the means of 24 no-compound controls (“high”) and 8 controls containing 1 μM un-labeled probe (“low”). […] Inhibition constants (Ki) were calculated from the IC50s, probe Kd and probe concentration. […] The minimum significant ratio was determined to evaluate assay reproducibility (Eastwood et al., (2006) J Biomol Screen, 11: 253-261). The MSR was determined to be 2.03 for BDI and 1.93 for BDII, and a moving MSR (last six run MSR overtime) for both BDI and BDII was typically <3.

A further test deals with T2, BRD4 (BDII_E352-M457) (Homo sapiens, UniProt O60885).
T2 construct: made in house
The experiment in a line: TR-FRET bromodomain binding assay, BRD4 second bromodomain. To be noted: His-tagged BRD4 BD2, 30 nM Alexa647 probe; Ki calculated from IC50, probe Kd and probe concentration. How it is done: as §1, §2, §3

The subject of test [1] is breast cancer cell line MX-1. The experiment in a line: MX-1 cell line proliferation assay, Method A. The test is classed as cell-based. To be noted: Homo sapiens, MX1; MX-1 cells, 96-well, 72 hours, Cell Titer Glo; read-out: Cellular proliferation: EC50 Method A. The method, boiled down:
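MX-1 breast cancer cells (5000/well) were attached overnight in RPMI 1640 with 10% FBS, then exposed for 3 days to compound at 0.0001–3 μM final. Cell Titer Glo luminescence was normalized to DMSO controls, and EC50s were obtained by sigmoidal fitting.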
In general terms: ATP-based viability assays read luminescence as a measure of living cells.

Take `COc1ccc(S(=O)(=O)Nc2cccc(Oc3ccc(S(C)(=O)=O)cc3-c3cn(C)c(=O)c4[nH]ccc34)c2)cc1OC` [Example 53, 3,4-dimethoxy-N-{3-[2-(6-methyl-7-oxo-6,7-dihydro-1H-pyrrolo[2,3-c]pyridin-4-yl)-4-(methylsulfonyl)phenoxy]phenyl}benzenesulfonamide]: the values for the Ki on BRD4 (BDI_K57-E168) and at BRD4 (BDII_E352-M457) were 3.4 nM and 1 nM, respectively. Further, in test [1], the EC50 came to 144 nM.
In the case of `Cn1cc(-c2cc(S(C)(=O)=O)ccc2NC2CCN(S(=O)(=O)/C=C/c3ccccc3)CC2)c2cc[nH]c2c1=O` [Example 102, 6-methyl-4-{5-(methylsulfonyl)-2-[(1-{[(E)-2-phenylethenyl]sulfonyl}piperidin-4-yl)amino]phenyl}-1,6-dihydro-7H-pyrrolo[2,3-c]pyridin-7-one], the figures for the Ki at BRD4 (BDI_K57-E168) and on BRD4 (BDII_E352-M457) were 6 nM and 6.8 nM, respectively. The EC50 in test [1] is 67.3 nM.

In general, Ki refers to a dissociation constant, usually derived from enzyme kinetics or from competition with a known ligand.
